Test results from US8697747B2, “Enhancing coagulation or reducing fibrinolysis” (THe UAB Research Foundation, priority 2009, dated 2014).

Assays:
[1] = pure (43.5 mg/mL) or up to three-fold diluted fibrinogen solution
Text: Exposure of purified fibrinogen to CORM-2. Experiments with purified fibrinogen pre-exposure to CORM-2 were to be performed in a similar fashion as that described with prothrombin. […] Therefore, a concentration-response relationship between various fibrinogen concentrations with or without the addition of CORM-2 was generated as outlined subsequently.

[2] = aqueous solution pH=7.4, 37° C.; cited from earlier work
pooled normal plasma = test: Dilution-response thrombelastography in plasma diluted with NS or VOL (no tPA); format: biochemical, human
Text: Plasma and volume expanders. Pooled normal plasma (George King Bio-Medical, Overland Park, Kans.) anticoagulated with sodium citrate was utilized for experimentation. […] The volume expanders tested were 0.9% NaCl (Abbott Laboratories, North Chicago, Ill.; also designated as NS) and 6% hydroxylethyl starch (HES) in 0.9% NaCl (VOLUVEN®, average molecular weight 130 kDa, 0.4 degree of substitution, C2:C6 ratio of substitution 11.2; Fresenius Kabi, Bad Homburg, Germany; also referred to as VOL).
Plasma sample composition of dilution-response experiments. The final volume for all subsequently described plasma sample mixtures was 359.6 μL. Sample composition consisted of 326 μL of plasma/volume expander, 10 μL of tissue factor reagent (0.1% final concentration in dH2O; Instrumentation Laboratory, Lexington, Mass.), 3.6 μL of dimethyl sulfoxide (DMSO) or DMSO with CORM-2 (100 μM final concentration; Sigma-Aldrich, St. Louis, Mo.), and 20 μL of 200 mM CaCl2. Tissue factor stock was kept on ice prior to use and was remade every two hours. […] DMSO was added to dry CORM-2 just prior to placement into the plasma mixture. Plasma was diluted 0%, 20%, 30%, 40% or 50% with NS or VOL (n=4 per condition).
Clot Lifespan Model (CLSM) Analyses. Plasma sample mixtures were placed in a disposable cup in a computer-controlled THROMBELASTOGRAPH® hemostasis system (Model 5000, Haemoscope Corp., Niles, Ill.), with addition of CaCl2 as the last step to initiate clotting. In the first series of experiments, no tPA was added, so data were collected until clot strength (maximum amplitude) was stable. In the second series of experiments which in tPA was added, data were collected until clot lysis time occurred. […] Additional elastic modulus-based parameters were determined and the nomenclature used to describe these phenomena is as follows: Time to maximum rate of thrombus generation (TMRTG): This is the time interval (sec) observed prior to maximum speed of clot growth. Maximum rate of thrombus generation (MRTG): This is the maximum velocity of clot growth observed (dynes/cm^2/sec). Total Thrombus Generation (TTG): This is the total area under the velocity curve during clot growth (dynes/cm^2), representing the amount of clot strength generated during clot growth. Time to maximum rate of lysis (TMRL): This is the time interval (sec) measured from the time of maximum strength to the time when the velocity of clot disintegration is maximal. Maximum Rate of Lysis (MRL): This is the maximum velocity of clot disintegration observed (−dynes/cm^2/sec). Area of Clot Lysis (ACL): This is the total area under the velocity curve during clot disintegration (−dynes/cm^2), representing the amount of clot strength lost during clot disintegration. As this model involves complete fibrinolysis, TTG is equivalent to ACL, so ACL was not presented as it provides no additional information.
Statistical Analyses. Data obtained from pooled normal plasma not exposed to tPA were graphically represented with commercially available software (SigmaPlot 11.0, Systat Software, Inc., San Jose, Calif.), and kinetic modeling of thrombelastographic data performed with the same software. Analyses of the effects of hemodilution and CORM-2 on CLSM variables obtained from pooled normal plasma were conducted using Kruskal-Wallis one way analysis of variance with Student-Newman-Keuls post-hoc test. […] These analyses were conducted with the same commercially available software (SigmaPlot 11.0). A P value of <0.05 was considered significant.

[3] = 20% dilution with VOL + 100 μM CORM-2, no tPA
[4] = 30% dilution with VOL + 100 μM CORM-2, no tPA
[5] = 40% dilution with VOL + 100 μM CORM-2, no tPA
[6] = 50% dilution with VOL + 100 μM CORM-2, no tPA
[7] = undiluted samples, no tPA, 100 μM CORM-2

For `[C-]#[O+].[C-]#[O+].[C-]#[O+].[C-]#[O+].[C-]#[O+].[C-]#[O+].[Cl][Ru][Cl].[Cl][Ru][Cl]` [CORM-2, tricarbonyldichlororuthenium (II) dimer], the “solubility of CORM-2 in DMSO added to purified fibrinogen solution” value [1] is listed as “not soluble”, the “CO released from every mole of CORM-2” value [2] is listed as 0.75 mol and the “MRTG, % of undiluted samples” value (pooled normal plasma; [3]) is listed as 93%. The “TTG, % of undiluted samples” value (pooled normal plasma; [3]) was 76%, the “MRTG, % of undiluted samples” value (pooled normal plasma; [4]) was 67% and the “TTG, % of undiluted samples” value (pooled normal plasma; [4]) was 50%. The “MRTG, % of undiluted samples” value (pooled normal plasma; [5]) was 60%, the “TTG, % of undiluted samples” value (pooled normal plasma; [5]) was 45% and the “MRTG, % of undiluted samples” value (pooled normal plasma; [6]) was 22%. The “TTG, % of undiluted samples” value (pooled normal plasma; [6]) was 17%, the “increase in MRTG with CORM-2 exposure” value (pooled normal plasma; samples diluted 50% with NS, no tPA, 100 μM CORM-2) was 12% and the “MRTG greater than matched diluted samples not exposed to CORM-2” value (pooled normal plasma; samples diluted with NS (except 50%), no tPA, 100 μM CORM-2) was 40-50%. For the same molecule, the “increase in MRTG” value (pooled normal plasma; [7]) was 75% and the “increase in TTG” value (pooled normal plasma; [7]) was 59%.
